Source: patent publication US9611283B1, “Methods for inhibiting cell proliferation in ALK-driven cancers” (ARIAD Pharmaceuticals, Inc., priority 2013, dated 2017)
Read-outs that look alike come from different tables or passages of the source.

Key:
Parental Ba/F3 cells = assay: In vitro viability / Ba/F3 cellular proliferation assay, parental cells; format: cell-based; details: Mus musculus; for IC50: BaF3
[1] = clinical, at MTD; cited from earlier work
[2] = target: Ba/F3 cells expressing EML4-ALK 1151 T insertion (Homo sapiens, UniProt Q9UM73, DUP1151-1151); assay: Ba/F3 cellular proliferation assay, EML4-ALK 1151 T insertion; details: Table 2
[3] = tested on: Ba/F3 EML4-ALK G1269S tumors; assay: In vivo efficacy, xenograft of Ba/F3 cells expressing EML4-ALK G1269S; design: species or system SCID Beige mice; details: 50 and 75 mg/kg, once daily oral gavage
EML4-ALK S1206R tumors = assay: Pharmacodynamics: p-ALK in EML4-ALK S1206R tumors in vivo; design: species or system mice; details: sustained for 24 hrs after single dose of 50 mg/kg
Experimental: Calibration standards were prepared in blank mouse plasma.

[4] = tested on: Ba/F3 cells expressing native EML4-ALK; assay: Accelerated in vitro mutagenesis screen
[5] = tested on: Ba/F3 EML4-ALK S1206R tumors; assay: In vivo efficacy, xenograft of Ba/F3 cells expressing EML4-ALK S1206R; design: species or system SCID Beige mice; details: 75 mg/kg, once daily oral gavage
[6] = Table 2, Ba/F3 parental, read-out: IC50

CCc1cc2c(cc1N1CCC(N3CCOCC3)CC1)C(C)(C)c1[nH]c3cc(C#N)ccc3c1C2=O [CH5424802]
IC50 (Parental Ba/F3 cells; [6]): > 10 µM

C[C@@H](Oc1cc(-c2cnn(C3CCNCC3)c2)cnc1N)c1c(Cl)ccc(F)c1Cl [crizotinib]
median Ctrough [1]: ~225 ng/mL
inhibition at […] (Parental Ba/F3 cells; BaF3, read-out: inhibition of parental Ba/F3 cell proliferation): > 90%
IC50 (Parental Ba/F3 cells; [6]): 2.06 ± 0.373 µM

COc1cc(N2CCC(N3CCN(C)CC3)CC2)ccc1Nc1ncnc(Nc2ccccc2S(=O)(=O)C(C)C)n1 [ASP3026]
IC50 [2]: 5.94 ± 2.28 µM
IC50 (Parental Ba/F3 cells; [6]): > 10 µM

COc1cc(N2CCC(N3CCN(C)CC3)CC2)ccc1Nc1ncc(Cl)c(Nc2ccccc2P(C)(C)=O)n1 [Compound 1]
tumor response in xenograft [3]: complete tumor regression
p-ALK inhibition (EML4-ALK S1206R tumors): 40-60%
mutations recovered ([4]; at 500 nM (S1206R)): only one
concentration that completely suppressed the emergence of resistance ([4]; mutagenesis screen): 1000 nM
mutants recovered in the screen ([4]; number of different mutants): ten
tumor response in xenograft [5]: tumor growth inhibition
IC50 (Parental Ba/F3 cells; Table 1, Parental Ba/F3 (IL-3), 72 h, n = 5, read-out: IC50s): 2.19 ± 0.41 µM
IC50 (Parental Ba/F3 cells; [6]): 4.58 ± 1.55 µM
